Laboratory results reported in ChEMBL document CHEMBL1201862, “PubChem BioAssay data set” (2004).
Calls of active or inactive are those of the source. Cut-off read from the data, not from the text of the source, for most assays here: actives have a measured EC50 and inactives only a lower limit.

Experiments:
[1] = viability loss in THP-1 monocytes – THP-1 cells, cytotoxicity control for Vif-APOBEC3G degradation inhibitor project, dose response (AID 1117359); assay type: functional; conditions: THP-1
[2] = NIH3T3 cell viability loss – ATP luminescence, mouse fibroblasts, counter-screen, dose response (AID 2010); assay type: functional, cell-based;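 note: cells exposed to compound for about 90 hours before reading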
[3] = Trypanosoma cruzi growth suppression in host cells – NIH3T3 host cells, beta-gal luminescence, confirmation (AID 2044); assay type: functional, cell-based;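 note: intracellular parasites grown in NIH/3T3 mouse fibroblasts as host cells; luminescent beta-galactosidase reporter signal from transgenic T. cruzi replicating inside host cells; inhibitors lower the luminescence signal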
[4] = molecular target: T1, Hexokinase HKDC1 (Homo sapiens, UniProt Q2TB90); experiment: SAR analysis of small molecule inhibitors of hexokinase domain containing I (HKDC1). [Related pubchem assays (depositor defined):AID493160, AID493190]; assay type: functional
T1 sequence (Q2TB90 whole entry): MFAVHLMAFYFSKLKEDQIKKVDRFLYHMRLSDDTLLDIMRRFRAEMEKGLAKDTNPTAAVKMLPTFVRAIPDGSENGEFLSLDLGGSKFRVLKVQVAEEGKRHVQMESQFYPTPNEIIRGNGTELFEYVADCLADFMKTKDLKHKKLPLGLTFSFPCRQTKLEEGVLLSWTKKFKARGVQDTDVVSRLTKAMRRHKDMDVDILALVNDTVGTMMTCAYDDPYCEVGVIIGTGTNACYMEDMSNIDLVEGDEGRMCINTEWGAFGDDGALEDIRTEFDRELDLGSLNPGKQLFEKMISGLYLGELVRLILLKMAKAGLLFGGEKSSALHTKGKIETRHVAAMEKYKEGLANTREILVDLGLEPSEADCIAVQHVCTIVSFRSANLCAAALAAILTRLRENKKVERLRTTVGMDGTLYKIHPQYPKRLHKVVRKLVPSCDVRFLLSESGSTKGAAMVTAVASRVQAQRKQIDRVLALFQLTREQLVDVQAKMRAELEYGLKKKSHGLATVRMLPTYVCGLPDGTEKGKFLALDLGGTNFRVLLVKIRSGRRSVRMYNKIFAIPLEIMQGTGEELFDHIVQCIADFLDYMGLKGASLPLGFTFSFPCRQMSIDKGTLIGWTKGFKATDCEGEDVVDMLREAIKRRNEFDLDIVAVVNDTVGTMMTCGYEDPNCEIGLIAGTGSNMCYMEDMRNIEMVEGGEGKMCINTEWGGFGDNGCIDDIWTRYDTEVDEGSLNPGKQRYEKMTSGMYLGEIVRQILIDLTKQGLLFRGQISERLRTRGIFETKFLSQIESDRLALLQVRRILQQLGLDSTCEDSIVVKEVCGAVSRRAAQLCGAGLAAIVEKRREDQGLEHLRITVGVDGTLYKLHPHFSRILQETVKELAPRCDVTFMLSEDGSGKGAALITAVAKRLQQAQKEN

[5] = molecular target: T2, Streptokinase A (Streptococcus pyogenes serotype M1, UniProt P10520); experiment: viability-normalized secreted streptokinase activity reduction – plasminogen activation absorbance, OD405, dose response (AID 1914); assay type: functional, Streptococcus pyogenes M1 GAS;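 note: secreted streptokinase activity via plasminogen activation per viability signal from cell pellet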
T2 sequence (P10520 whole entry): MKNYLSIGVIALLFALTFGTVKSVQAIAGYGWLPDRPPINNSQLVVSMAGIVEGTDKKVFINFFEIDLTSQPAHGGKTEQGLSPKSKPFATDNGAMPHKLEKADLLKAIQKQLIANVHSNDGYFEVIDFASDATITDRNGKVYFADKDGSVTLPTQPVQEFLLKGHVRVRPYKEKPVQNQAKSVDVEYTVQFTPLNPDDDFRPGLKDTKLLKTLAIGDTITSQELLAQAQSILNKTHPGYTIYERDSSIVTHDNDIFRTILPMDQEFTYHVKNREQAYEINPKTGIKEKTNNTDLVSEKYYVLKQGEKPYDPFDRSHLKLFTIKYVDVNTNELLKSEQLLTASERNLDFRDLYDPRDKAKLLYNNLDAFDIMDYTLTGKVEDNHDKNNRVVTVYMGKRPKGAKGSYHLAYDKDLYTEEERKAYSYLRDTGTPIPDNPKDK

[6] = system: Streptococcus sp. 'group A'; experiment: Streptococcus pyogenes SK(-)GAS viability under kanamycin – luminescence, BacTiterGlo, confirmation, counter-screen for streptokinase expression inhibitor project, dose response (AID 1900); assay type: functional, organism-based
[7] = molecular target: T3, Heat shock factor protein 1 (Mus musculus, UniProt P38532); experiment: decrease of HSF1-responsive luciferase luminescence – cell-based, NIH3T3, dose retest, confirmation (AID 2382); assay type: functional;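 note: NIH3T3 fibroblasts with HSF1-driven luciferase reporter stressed by proteasome inhibitor MG132; luminescence from HSF1-driven luciferase expression after 8 hours of MG132 stress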
T3 sequence (P38532 whole entry): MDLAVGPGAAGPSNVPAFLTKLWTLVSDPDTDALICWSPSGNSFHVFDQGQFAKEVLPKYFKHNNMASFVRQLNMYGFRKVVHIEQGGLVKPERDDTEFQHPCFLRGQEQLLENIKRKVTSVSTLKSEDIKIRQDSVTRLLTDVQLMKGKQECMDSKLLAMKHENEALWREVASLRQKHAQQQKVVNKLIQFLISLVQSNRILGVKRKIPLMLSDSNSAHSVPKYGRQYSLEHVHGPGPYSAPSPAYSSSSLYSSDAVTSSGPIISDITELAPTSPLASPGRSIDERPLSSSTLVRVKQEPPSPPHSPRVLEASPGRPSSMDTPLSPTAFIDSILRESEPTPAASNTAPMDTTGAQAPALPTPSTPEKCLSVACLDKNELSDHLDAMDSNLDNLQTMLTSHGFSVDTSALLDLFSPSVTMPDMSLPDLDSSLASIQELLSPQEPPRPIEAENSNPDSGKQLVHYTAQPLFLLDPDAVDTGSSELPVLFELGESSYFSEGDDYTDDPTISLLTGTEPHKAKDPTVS

[8] = molecular target: T4, C-C chemokine receptor type 6 (Homo sapiens, UniProt P51684); experiment: antagonism of CCR6 beta-arrestin recruitment – cell-based, luminescent beta-arrestin readout, dose response (AID 504728); assay type: functional
T4 sequence (P51684 whole entry): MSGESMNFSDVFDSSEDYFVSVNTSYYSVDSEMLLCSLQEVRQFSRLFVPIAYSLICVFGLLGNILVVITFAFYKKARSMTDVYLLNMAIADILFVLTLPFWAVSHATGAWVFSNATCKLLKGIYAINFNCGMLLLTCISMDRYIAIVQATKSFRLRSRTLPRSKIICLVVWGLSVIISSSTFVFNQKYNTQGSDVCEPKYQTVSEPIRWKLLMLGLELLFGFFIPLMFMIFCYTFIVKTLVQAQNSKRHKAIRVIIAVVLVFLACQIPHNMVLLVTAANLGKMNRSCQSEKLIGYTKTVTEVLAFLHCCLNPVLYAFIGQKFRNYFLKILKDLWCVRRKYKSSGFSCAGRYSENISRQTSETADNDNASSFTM

[9] = molecular target: Histone-lysine N-methyltransferase NSD2 (Homo sapiens, UniProt O96028); assay type: biochemical
Sequence of Histone-lysine N-methyltransferase NSD2 (O96028 whole entry): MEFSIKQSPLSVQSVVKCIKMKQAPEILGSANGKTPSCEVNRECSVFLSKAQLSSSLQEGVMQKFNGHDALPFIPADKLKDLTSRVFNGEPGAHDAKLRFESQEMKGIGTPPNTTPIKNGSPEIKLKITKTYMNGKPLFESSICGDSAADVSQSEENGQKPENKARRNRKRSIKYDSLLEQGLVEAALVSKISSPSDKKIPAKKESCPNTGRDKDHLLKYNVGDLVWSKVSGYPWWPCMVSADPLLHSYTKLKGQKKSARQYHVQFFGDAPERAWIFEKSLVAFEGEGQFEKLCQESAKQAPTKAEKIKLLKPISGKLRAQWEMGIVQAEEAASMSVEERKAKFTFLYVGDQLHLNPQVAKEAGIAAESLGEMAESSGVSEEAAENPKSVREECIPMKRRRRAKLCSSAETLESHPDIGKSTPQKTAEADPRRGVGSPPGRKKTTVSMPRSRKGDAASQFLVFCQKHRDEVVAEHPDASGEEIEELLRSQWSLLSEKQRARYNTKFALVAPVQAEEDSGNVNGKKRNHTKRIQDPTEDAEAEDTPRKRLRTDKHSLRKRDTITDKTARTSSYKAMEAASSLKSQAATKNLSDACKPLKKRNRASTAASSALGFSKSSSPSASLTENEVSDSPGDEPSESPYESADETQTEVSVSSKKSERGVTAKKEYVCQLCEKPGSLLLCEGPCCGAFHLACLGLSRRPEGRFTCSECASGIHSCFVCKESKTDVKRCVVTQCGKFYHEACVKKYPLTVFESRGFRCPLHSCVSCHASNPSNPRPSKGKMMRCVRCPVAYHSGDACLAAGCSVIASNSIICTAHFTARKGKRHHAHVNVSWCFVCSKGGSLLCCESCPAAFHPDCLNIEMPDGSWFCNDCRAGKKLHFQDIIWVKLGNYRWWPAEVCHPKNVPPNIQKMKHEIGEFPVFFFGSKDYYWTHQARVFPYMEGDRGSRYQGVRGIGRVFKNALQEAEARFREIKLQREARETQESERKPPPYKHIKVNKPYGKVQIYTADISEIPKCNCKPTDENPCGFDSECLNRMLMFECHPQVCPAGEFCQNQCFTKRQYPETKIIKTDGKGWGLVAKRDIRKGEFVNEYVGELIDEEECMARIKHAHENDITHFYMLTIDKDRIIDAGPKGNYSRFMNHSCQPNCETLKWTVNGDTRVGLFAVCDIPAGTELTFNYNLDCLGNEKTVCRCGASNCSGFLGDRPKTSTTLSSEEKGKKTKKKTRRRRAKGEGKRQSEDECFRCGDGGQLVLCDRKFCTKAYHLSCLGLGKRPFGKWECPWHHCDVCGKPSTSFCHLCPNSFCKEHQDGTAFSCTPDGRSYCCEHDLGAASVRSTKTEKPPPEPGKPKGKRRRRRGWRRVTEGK

NC(=O)C1CCN(C2=C(Cl)C(=O)c3ccccc3C2=O)CC1
CC50 [1]: 9.71 µM (active)
EC50 [2]: 3.29 µM (active)
EC50 [3]: 2.18 µM (active)

O=c1c2ccccc2nc(/C=C/c2cccnc2)n1Cc1ccccc1
IC50 [4]: > 80 µM (inactive)

O=C(O)c1ccc(N/N=C/c2ccc(OC(=O)c3ccccc3Cl)cc2)cc1
EC50 [5]: > 150 µM (not active)
EC50 [6]: 2.91 µM (active)
EC50 [7]: 0.167 µM (active)

COC(=O)c1ccccc1NC1=C/C(=N\S(=O)(=O)c2ccc(C(=O)O)cc2)c2ccccc2C1=O
IC50 [8]: > 66.6 µM (inactive)
AC50 [9]: 0.557 µM (active)
